Reference: PubChem BioAssay (NCI)
“And” between values parts separate entries of the source, which are not always exact repeats. Equal entries are not always repeated.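 Cultured in 96-well plates, cells were exposed to test compound for 48 hours across five concentrations. GI50 = concentration required for 50% inhibition of growth. TGI: concentration producing complete growth inhibition.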

Key:
Assay in all cases: growth of human tumour cells (NCI), 48 h
HCC-2998 colon = tested on: HCC-2998 colon
A549 NSCLC = tested on: A549 NSCLC
U251 CNS = tested on: U251 CNS
OVCAR-3 ovarian = tested on: OVCAR-3 ovarian
SK-MEL-2 melanoma = tested on: SK-MEL-2 melanoma
OVCAR-5 ovarian = tested on: OVCAR-5 ovarian
SR leukemia = tested on: SR leukemia
SF-539 CNS = tested on: SF-539 CNS
TK-10 renal = tested on: TK-10 renal
HCT-116 colon = tested on: HCT-116 colon

**Q.** For `O=C(Nc1ccccc1/C=C/c1n[nH]c2ccccc12)c1ccccc1`, which GI50 (HCC-2998 colon) is on record?
**A.** 1620 nM

**Q.** What about the TGI (HCC-2998 colon) of the same molecule?
**A.** 4.23 µM

**Q.** What about the GI50 (A549 NSCLC) of the same molecule?
**A.** 2470 nM

**Q.** What about the TGI (A549 NSCLC) of the same molecule?
**A.** 13.6 µM

**Q.** What about the GI50 (U251 CNS) of the same molecule?
**A.** 1720 nM

**Q.** And the TGI (U251 CNS)?
**A.** 3.75 µM

**Q.** What about the GI50 (OVCAR-3 ovarian) of the same molecule?
**A.** 5260 nM

**Q.** What about the TGI (OVCAR-3 ovarian) of the same molecule?
**A.** 16.5 µM

**Q.** And the GI50 (SK-MEL-2 melanoma)?
**A.** 5030 nM

**Q.** What about the TGI (SK-MEL-2 melanoma) of the same molecule?
**A.** 16.5 µM

**Q.** What about the GI50 (OVCAR-5 ovarian) of the same molecule?
**A.** 1920 nM

**Q.** And the TGI (OVCAR-5 ovarian)?
**A.** 12.9 µM

**Q.** And the GI50 (SR leukemia)?
**A.** 2870 nM

**Q.** And the TGI (SR leukemia)?
**A.** 13.7 µM

**Q.** And the GI50 (SF-539 CNS)?
**A.** 4.26 µM

**Q.** What about the TGI (SF-539 CNS) of the same molecule?
**A.** 14.1 µM

**Q.** What about the GI50 (TK-10 renal) of the same molecule?
**A.** 4.85 µM

**Q.** And the TGI (TK-10 renal)?
**A.** 16 µM

**Q.** And the GI50 (HCT-116 colon)?
**A.** 2280 nM

**Q.** What about the TGI (HCT-116 colon) of the same molecule?
**A.** 10.5 µM

**Q.** How did the GI50 (HCC-2998 colon) turn out when `CC[C@@H]1C(=O)N(C)c2cnc(Nc3ccc(C(=O)NC4CCC(N5CCN(CC6CC6)CC5)CC4)cc3OC)nc2N1C(C)C` (stereo partly drawn) was run?
**A.** 28.9 nM and 37.4 nM

**Q.** And the TGI (HCC-2998 colon)?
**A.** > 4.12 µM and 2.83 µM

**Q.** And the GI50 (A549 NSCLC)?
**A.** 30.8 nM and 34.8 nM

**Q.** What about the GI50 (U251 CNS) of the same molecule?
**A.** 26.3 nM and 27.6 nM

**Q.** And the TGI (U251 CNS)?
**A.** > 7.97 µM and 2.14 µM

**Q.** And the GI50 (OVCAR-3 ovarian)?
**A.** 13 nM and < 16.1 nM

**Q.** And the GI50 (SK-MEL-2 melanoma)?
**A.** 22.1 nM and 35.1 nM

**Q.** What about the TGI (SK-MEL-2 melanoma) of the same molecule?
**A.** 1.97 µM and 2.27 µM

**Q.** And the GI50 (OVCAR-5 ovarian)?
**A.** 14.6 nM and 50.2 nM

**Q.** And the TGI (OVCAR-5 ovarian)?
**A.** > 10 µM and 16.9 µM

**Q.** And the GI50 (SR leukemia)?
**A.** 13.4 nM and 12.3 nM

**Q.** And the TGI (SR leukemia)?
**A.** 1.32 µM and 1.51 µM

**Q.** And the GI50 (SF-539 CNS)?
**A.** 0.0409 µM and 0.0372 µM

**Q.** And the TGI (SF-539 CNS)?
**A.** 1.36 µM and 1.48 µM

**Q.** And the GI50 (TK-10 renal)?
**A.** 0.128 µM and 0.0776 µM

**Q.** What about the TGI (TK-10 renal) of the same molecule?
**A.** > 10 µM and 8.62 µM

**Q.** And the GI50 (HCT-116 colon)?
**A.** 13.6 nM and 22 nM

**Q.** What about the TGI (HCT-116 colon) of the same molecule?
**A.** > 3.83 µM and 1.68 µM

**Q.** `Cc1cc(NC(=O)NCCCOc2ccc(N3C(N)=NC(N)=NC3(C)C)cc2Cl)ccc1S(=O)(=O)F` was tested. Which GI50 (HCC-2998 colon) did it give?
**A.** 2060 nM

**Q.** And the TGI (HCC-2998 colon)?
**A.** > 69.2 µM

**Q.** And the GI50 (A549 NSCLC)?
**A.** 412 nM

**Q.** What about the TGI (A549 NSCLC) of the same molecule?
**A.** > 100 µM

**Q.** What about the GI50 (U251 CNS) of the same molecule?
**A.** 492 nM

**Q.** And the TGI (U251 CNS)?
**A.** 19.7 µM

**Q.** What about the GI50 (OVCAR-3 ovarian) of the same molecule?
**A.** 2790 nM

**Q.** And the TGI (OVCAR-3 ovarian)?
**A.** > 53.9 µM

**Q.** And the GI50 (SK-MEL-2 melanoma)?
**A.** 2430 nM

**Q.** What about the TGI (SK-MEL-2 melanoma) of the same molecule?
**A.** 65.9 µM

**Q.** And the GI50 (OVCAR-5 ovarian)?
**A.** 883 nM

**Q.** And the TGI (OVCAR-5 ovarian)?
**A.** > 100 µM

**Q.** And the GI50 (SR leukemia)?
**A.** 369 nM

**Q.** And the TGI (SR leukemia)?
**A.** > 46.2 µM

**Q.** What about the GI50 (SF-539 CNS) of the same molecule?
**A.** 2.85 µM

**Q.** And the TGI (SF-539 CNS)?
**A.** 31.7 µM

**Q.** What about the GI50 (TK-10 renal) of the same molecule?
**A.** 3.11 µM

**Q.** And the TGI (TK-10 renal)?
**A.** > 100 µM

**Q.** What about the GI50 (HCT-116 colon) of the same molecule?
**A.** 370 nM

**Q.** And the TGI (HCT-116 colon)?
**A.** > 100 µM

**Q.** `O=C(O)c1c2c(c(O)c3c1CN(C1CCCCC1)CO3)OCN(C1CCCCC1)C2` was tested. Which TGI (HCC-2998 colon) did it give?
**A.** 84.1 µM

**Q.** What about the TGI (A549 NSCLC) of the same molecule?
**A.** > 100 µM

**Q.** And the TGI (U251 CNS)?
**A.** > 100 µM

**Q.** And the TGI (OVCAR-3 ovarian)?
**A.** > 100 µM

**Q.** And the TGI (SK-MEL-2 melanoma)?
**A.** > 100 µM

**Q.** And the TGI (OVCAR-5 ovarian)?
**A.** > 100 µM

**Q.** What about the TGI (SR leukemia) of the same molecule?
**A.** 73 µM

**Q.** And the TGI (SF-539 CNS)?
**A.** > 100 µM

**Q.** What about the TGI (TK-10 renal) of the same molecule?
**A.** > 100 µM

**Q.** What about the TGI (HCT-116 colon) of the same molecule?
**A.** > 100 µM

**Q.** For `C=C1C(=O)O[C@@H]2C[C@@]3(C)CCC[C@H](C)C3=C[C@H]12` (tested in a mixture with another compound), which TGI (HCC-2998 colon) is on record?
**A.** 15.5 µM

**Q.** And the TGI (A549 NSCLC)?
**A.** 18.6 µM

**Q.** What about the TGI (U251 CNS) of the same molecule?
**A.** 9.93 µM

**Q.** What about the TGI (OVCAR-3 ovarian) of the same molecule?
**A.** 3.44 µM

**Q.** And the TGI (SK-MEL-2 melanoma)?
**A.** 5.41 µM

**Q.** What about the TGI (OVCAR-5 ovarian) of the same molecule?
**A.** 15.8 µM

**Q.** And the TGI (SR leukemia)?
**A.** 3.26 µM

**Q.** And the TGI (SF-539 CNS)?
**A.** 4.85 µM

**Q.** And the TGI (TK-10 renal)?
**A.** 6.92 µM

**Q.** And the TGI (HCT-116 colon)?
**A.** 2.93 µM

**Q.** Which results are given for `CCCN1CCC(Oc2cc(Nc3nc(Nc4cccc(F)c4C(N)=O)c4cc[nH]c4n3)c(OC)cc2Cl)CC1`?
**A.** GI50 (HCC-2998 colon): 994 nM; TGI (HCC-2998 colon): 3.84 µM; GI50 (A549 NSCLC): 2640 nM; TGI (A549 NSCLC): 5.95 µM; GI50 (U251 CNS): 1680 nM; TGI (U251 CNS): 5.21 µM; GI50 (OVCAR-3 ovarian): 4180 nM; TGI (OVCAR-3 ovarian): 7.99 µM; GI50 (SK-MEL-2 melanoma): 4500 nM; TGI (SK-MEL-2 melanoma): 8.32 µM; GI50 (OVCAR-5 ovarian): 3440 nM; TGI (OVCAR-5 ovarian): 7.27 µM; GI50 (SR leukemia): 1020 nM; TGI (SR leukemia): 6.52 µM; GI50 (SF-539 CNS): 4.13 µM; TGI (SF-539 CNS): 8.24 µM; GI50 (TK-10 renal): 3.14 µM; TGI (TK-10 renal): 7.01 µM; GI50 (HCT-116 colon): 2160 nM; TGI (HCT-116 colon): 5.5 µM

**Q.** Which results are given for `N#Cc1nc2cc(Cl)c(Cl)cc2nc1-c1ccc(Cl)cc1`?
**A.** GI50 (HCC-2998 colon): 165 nM; TGI (HCC-2998 colon): 18.2 µM; GI50 (A549 NSCLC): 13800 nM; TGI (A549 NSCLC): > 46.6 µM; GI50 (U251 CNS): 19300 nM; TGI (U251 CNS): 39.3 µM; GI50 (OVCAR-3 ovarian): 1890 nM; TGI (OVCAR-3 ovarian): > 47.8 µM; GI50 (SK-MEL-2 melanoma): > 56000 nM; TGI (SK-MEL-2 melanoma): > 100 µM; GI50 (OVCAR-5 ovarian): > 100000 nM; TGI (OVCAR-5 ovarian): > 100 µM; GI50 (SR leukemia): 22000 nM; TGI (SR leukemia): 53.1 µM; GI50 (SF-539 CNS): 46.2 µM; TGI (SF-539 CNS): > 100 µM; GI50 (TK-10 renal): 21.3 µM; TGI (TK-10 renal): 46.3 µM; GI50 (HCT-116 colon): 15800 nM; TGI (HCT-116 colon): 29.9 µM
